Experiments:
Experiment in all cases: Anchorage independent soft agar tumor growth assay
Type in all cases: cell-based
BT549 = BT549 breast carcinoma; PTEN p.V275fs*1, No protein; percent of DMSO-treated control
Protocol: Cellular Assays—Cell Growth Inhibition Assay in PTEN Wild-Type or PTEN Deficient Tumor Cell Lines Twenty-two Phosphatase and Tensin Homolog (PTEN) wild-type or PTEN deficient tumor cell lines were cultured generally according to instructions supplied by cell culture supplier American Type Culture Collection, Manassas, Va., with 10% fetal bovine serum at 5% CO2 and 37° C. Cells were seeded into either a T-75 or a T-175 flask 3-4 days prior to 96-well assay plating such that the flasks were approximately 70-80% confluent of the time of harvest. Cells were harvested using 0.25% trypsin-EDTA (Invitrogen #25200056). Trypan Blue exclusion staining was used to determine cell number. Viable cells were plated in clear, flat bottom 96-well plates (BD #353075) under anchorage independent conditions at 2,000-10,000 cells per well depending on the cell line. To generate anchorage independent growth conditions, a 5% agar stock solution in water was made and autoclaved to melt and sterilize. […] The next day one plate of cells was processed at the time of compound addition to quantify the starting number of cells (T=0 or T0). […] Following the 6-day incubation, 20 μl of Alamar Blue (Invitrogen # DAL1100) was added to the cells, incubated at 5% CO2 and 37° C. for 6 hours and the plates read on a Spectramax (Gemini EM) at 530 nm (excitation) and 590 nm (emission) with the auto cut-off disabled. […]

H4 = H4 CNS glioblastoma, PTEN Loss, No protein
Protocol: (§1) Cellular Assays—Cell Growth Inhibition Assay in PTEN Wild-Type or PTEN Deficient Tumor Cell Lines Twenty-two Phosphatase and Tensin Homolog (PTEN) wild-type or PTEN deficient tumor cell lines were cultured generally according to instructions supplied by cell culture supplier American Type Culture Collection, Manassas, Va., with 10% fetal bovine serum at 5% CO2 and 37° C. Cells were seeded into either a T-75 or a T-175 flask 3-4 days prior to 96-well assay plating such that the flasks were approximately 70-80% confluent of the time of harvest. Cells were harvested using 0.25% trypsin-EDTA (Invitrogen #25200056). Trypan Blue exclusion staining was used to determine cell number. Viable cells were plated in clear, flat bottom 96-well plates (BD #353075) under anchorage independent conditions at 2,000-10,000 cells per well depending on the cell line. To generate anchorage independent growth conditions, a 5% agar stock solution in water was made and autoclaved to melt and sterilize. From the 5% agar solution, a 0.6% agar/media+10% fetal bovine serum (FBS) solution was made to generate a bottom agar layer in the plates to prevent cell attachment. Seventy five microliters per well of the 0.6% agar-media solution was added to the plates. After solidification, a cell solution of 266,870 to 1, 334,022 cells (depending on the cell line) in 10 ml of 0.3% agar/media+10% FBS was made and 75 μl of the cell/media/agar suspension was added to the plates. After the cell layer solidified, 50 μl of media+10% FBS was added to the top of the cells. A 0.3% Brij 35 (Sigma B4184) solution in media+10% FBS was added to column 12 as a background subtraction control. The cells were incubated overnight at 5% CO2 and 37° C. The next day one plate of cells was processed at the time of compound addition to quantify the starting number of cells (T=0 or T0). […] Three hundred microliters of media was added to the compound dilutions. Ten microliters per well of the serial dilutions was added to the cells and the plates incubated for 6 days at 5% CO2 and 37° C. […] Following the 6-day incubation, 20 μl of Alamar Blue (Invitrogen # DAL1100) was added to the cells, incubated at 5% CO2 and 37° C. for 6 hours and the plates read on a Spectramax (Gemini EM) at 530 nm (excitation) and 590 nm (emission) with the auto cut-off disabled. For analysis of cell growth inhibition dose response curves, the data was plotted as the percent of the DMSO-treated control samples (DMSO samples set to 100%). […] Values from wells containing 0.3% Brij 35 (under anchorage independent conditions) were subtracted from all samples for background correction.

HCC19377 = HCC19377 breast carcinoma, PTEN Loss, No protein
Protocol: as §1

HCC70 = HCC70 breast carcinoma, PTEN p.F90fs*9, No protein
Protocol: as §1

HCT-116 = HCT-116 colon carcinoma, PTEN Wild-type
Protocol: as §1

LOXIMVI = LOXIMVI skin melanoma, PTEN Wild-type, Protein
Protocol: as §1

MDA-MB-468 = MDA-MB-468 breast carcinoma, PTEN p.?, L70Fs*7, No protein
Protocol: as §1

SKOV-3 = SKOV-3 ovary adenocarcinoma, PTEN Wild-type
Protocol: as §1

SW1088 = SW1088 CNS glioblastoma, PTEN Loss, No protein
Protocol: as §1

U-87MG = U-87MG CNS glioblastoma, PTEN p.? (splice site mutation), No protein
Protocol: as §1

U251 = U251 CNS glioblastoma, PTEN p.E242fs*15, No protein
Protocol: as §1

UACC-62 = UACC-62 skin melanoma, PTEN p.P248fs*5, No protein
Protocol: as §1

UM-UC-3 = UM-UC-3 bladder transitional, PTEN Loss, No protein
Protocol: as §1

WM-115 = WM-115 skin melanoma, PTEN p.165fs*, No protein
Protocol: as §1

[1] = 144 h, 6-day incubation, Alamar Blue, read-out: Compound EC50 (nM) ± StDev
[2] = percent of DMSO-treated control
[3] = Homo sapiens, 144 h, 6-day incubation, Alamar Blue, read-out: Compound EC50 (nM) ± StDev

EC50 (H4; [1]): 12 ± 8 nM
EC50 (HCC19377; [1]): 24 ± 8 nM
EC50 (HCT-116; [3]): > 30700 nM
EC50 (LOXIMVI; Homo sapiens, LOX IMVI, 144 h, 6-day incubation, Alamar Blue, read-out: Compound EC50 (nM) ± StDev): > 30700 nM
EC50 (MDA-MB-468; [3]): 89 ± 55 nM
EC50 (SKOV-3; Homo sapiens, SK-OV-3, 144 h, 6-day incubation, Alamar Blue, read-out: Compound EC50 (nM) ± StDev): > 30700 nM
EC50 (SW1088; [3]): 12 ± 6 nM
EC50 (U-87MG; [3]): 2980 ± 2770 nM
EC50 (U251; Homo sapiens, U-251, 144 h, 6-day incubation, Alamar Blue, read-out: Compound EC50 (nM) ± StDev): 19000 ± 8620 nM
EC50 (UACC-62; [3]): 23 ± 27 nM
EC50 (UM-UC-3; Homo sapiens, UMUC3, 144 h, 6-day incubation, Alamar Blue, read-out: Compound EC50 (nM) ± StDev): 10 ± 8 nM
EC50 (WM-115; [3]): 8 ± 3 nM
SMILES: Cc1c(Cn2c(C)nc3c(C(=O)O)cc(N4CCOCC4)cc32)cccc1C(F)(F)F [Example 31, 2-methyl-1-{[2-methyl-3-(trifluoromethyl)phenol]methyl}-6-(4-morpholinyl)-1H-benzimidazole-4-carboxylic acid]
Compound Ymin ± StDev (BT549): 52 ± 7
Compound Ymin ± StDev (H4; [2]): 55 ± 18
Compound Ymin ± StDev (HCC19377; [2]): 67 ± 8
Compound Ymin ± StDev (HCC70; [2]): 27 ± 8
EC50 (HCC70; [3]): 53 ± 21 nM
Compound Ymin ± StDev (HCT-116; [2]): >80
Compound Ymin ± StDev (LOXIMVI; [2]): >90
Compound Ymin ± StDev (MDA-MB-468; [2]): 44 ± 6
Compound Ymin ± StDev (SKOV-3; [2]): >80
Compound Ymin ± StDev (SW1088; [2]): 36 ± 8
Compound Ymin ± StDev (U-87MG; [2]): 34 ± 18
Compound Ymin ± StDev (U251; [2]): 80 ± 17
Compound Ymin ± StDev (UACC-62; [2]): 76 ± 18
Compound Ymin ± StDev (UM-UC-3; [2]): 83 ± 29
Compound Ymin ± StDev (WM-115; [2]): 54 ± 14

From patent publication US10660898B2, “Benzimidazole derivatives as PI3 kinase inhibitors” (GLAXOSMITHKLINE LLC, priority 2010, dated 2020)
